Test results taken from patent US20030119800A1, “Bone anabolic compounds and methods of use” (priority 2001, published 2003).

Columns and labels:
[1] = test system: calvaria-derived murine osteoblastic cells; assay: Etoposide-induced apoptosis of calvaria-derived osteoblastic cells; format: cell-based, mouse
Source text: HeLa cells were co-transfected with reporter constructs in which SRE or AP-1 drive the expression of secreted alkaline phosphatase (SEAP), along with the wild type ERα (A and B); or its ligand binding domain (E), or E fused to a membrane (E-Mem) or nuclear (E-Nuc) localization sequence (A). A dominant negaitve (dn) MEK or dn Jnk were also introduced into a subset of the ERα transfected cells. […] In FIGS. 1A and 1B, 100% indicates activity in vehicle treated cells. (C) HeLa cells were co-transfected with the ERα and nEGFP and wild type or dn mutants of the indicated transcription factors. […] (D) HeLa cells (upper panel) were transiently co-transfected with the ERα, a nonphosphorylatable dn mutant of Bad. Calvaria-derived murine osteoblastic cells (lower panel) were pre-treated with the P13K inhibitor wortmannin. Cells were then treated as in (C). […] (E) Proposed model for a kinase-mediated non-genotropic regulation of gene transcription and apoptosis by sex steroids.
(§1) Osteoblastic cells (A) were isolated from calvaria of neonatal female or male mice, the sex of which was determined by Southern blot analysis of liver DNA with a Y chromosome specific cDNA probe; and cultured as previously described. The ability of the indicated steroids to protect against etoposide induced apoptosis was determined as in FIG. 1D, lower panel. (B) Osteoclasts were generated in bone marrow cultures from adult female or male mice, and then treated with vehicle or the indicated concentrations of steroids for 24 hours at which point the number of cells undergoing apoptosis was determined. Representative results from 1 of 4 females and 1 of 4 males examined are shown. Each point represents the mean of triplicate determinations±SD. *p<0.05 vs. vehicle, by ANOVA. (C & D) Eight-month old Swiss Webster mice (n=8-10 per group) were sham-operated, ovariectomized (OVX) or orchidectomized (ORX). […] BMD and wet uterine or seminal vesicle weight was determined six weeks later. Bars indicate means±SD. *p<0.05 vs OVX or ORX.
(§2) Quantification of apoptotic cells in vitro: Apoptosis of HeLa cells or calvaria-derived osteoblastic cells was quantified by direct visualization of changes in nuclear morphology or by trypan blue staining, respectively, as previously described (Kousteni et al, 2001). Apoptosis of osteoclasts, derived from bone marrow cells cultured with 30 ng/ml M-CSF and 30 ng/ml soluble RANK ligand, was quantified by measuring caspase 3 activity as previously described (Weinstein et al, 2002).

[2] = test system: osteoclasts generated in bone marrow cultures from adult female or male mice; assay: Osteoclast apoptosis in bone marrow derived cultures; format: cell-based, mouse
Protocol: as §1
FIG. 8 illustrates the pro-apoptotic effect of sex steroids on osteoclasts requires Src/ERK signaling. […] After 24 hours, the percentage of apoptotic osteoclasts was determined as in FIG. 7.
as §2

[3] = test system: OVX or ORX Swiss Webster mice; assay: Gonadectomized (OVX or ORX) Swiss Webster mice with 60-day slow release pellets: bone and reproductive tissues; format: in vivo, mouse
Protocol: as §1
FIG. 9 illustrates the equivalence of the skeletal actions of estrogens and androgens in female and male mice. […] Six weeks later, osteoblast apoptosis in histologic sections of the vertebrae (A), osteoblastogenesis and osteoclastogenesis in ex vivo bone marrow cultures (B and C), and serum osteocalcin concentration (D) were determined. Bars indicate means±SD, *p<0.05 vs OVX or ORX.
Global, spine and hindlimb BMD was determined at both 4 and 6 weeks later in the experiment with the 8 month old females, and at 6 weeks only in the experiments with the 6 month old females and males (A, B and C). The 6 week BMD data in females (B) represent pooled values from the two experiments with the 6- and the 8-month old mice.
Longitudinal undecalcified sections of the distal femur are shown in (B). […] Osteoblast apoptosis in sections of L1-L4 vertebrae from females (8 month old) and males (C).
Histomorphometric analysis of L1-L4 vertebrae from 6 month old females (A-F) and pooled serum osteocalcin levels from the 6 and 8 month old females (G). […] The ANGELS compounds described herein are useful for maintaining and/or increasing bone mass and/or strength and/or density in mammals. Mammals, preferably humans, in need of such compounds can include those suffering from such conditions as female osteoporosis (post menopausal), male osteoporosis, glucocorticoid-induced osteoporosis, immobilization and aging-related osteoporosis, idiopathic or juvenile osteoporosis, transplantation-related osteoporosis, and alveolar ridge bone loss. In addition, the compounds described herein are particularly useful for administration to subjects that are unable or unwilling to tolerate therapies that have a masculinizing or feminizing effect. For example, subjects such as breast cancer patients (especially those with bone metastasis on gonadotropin […] hormone (GnRH) or ovariectomized), prostrate cancer patients (especially those on GnRH/castration therapy), and myeloma/lymphoma patients are frequently poor candidates for treatment with estrogen or androgens because of the risk of a recurrence of the underlying condition, e.g., cancer.
Wet uterine (A) or seminal vesicle weight (B) of female and male mice described in FIG. 11. […] Note the following morphologic differences in the uteri of OVX- and OVX+4-estren-3α,17β-diol-treated mice as compared to uteri from sham-operated and OVX+E2-treated mice: thin and atrophic columnar epithelium; compact stroma; decreased number of glands; decreased nucleus to cytoplasmic ratio in the columnar epithelial, endometrial stroma, and myometrial cells; and absence of mitotic activity. (D) Proliferation of MCF-7 cells was determined by ^3H-thymidine uptake.
For these studies, mature Swiss Webster mice (8 month old), n=8-10 per group, were sham-operated or gonadectomized (GNDX). […]

[4] = histomorphometry of lumbar vertebrae L1-L4, OVX females

SMILES: C[C@]12CC[C@H]3[C@@H](CCC4=C[C@H](O)CC[C@@H]43)[C@@H]1CC[C@@H]2O [4-estren-3α,17β-diol]
- difference in potency in osteoblasts from one sex versus the other ([1]; cell preparations from females or males): no difference
- etoposide-induced apoptosis in primary cultures of osteoblasts ([1]; cells from female or male mice, dose dependent manner): attenuated etoposide-induced apoptosis
- difference in potency in osteoclasts from females and males [2]: no difference
- body weight ([3]; 7.6 mg per 60 day slow release pellet): no effect
- effect on the bone marrow cavity ([3]; 4-estren-3α,17β-diol 7.6 mg pellet, E2 pharmacologic dose 100× the replacement dose): no adverse effects
- longitudinal undecalcified sections of the distal femur ([3]; 4-estren-3α,17β-diol at 300× ERT versus vehicle or E2 1× ERT, E2 at 100× ERT): increased cortical and trabecular width
- bone compression strength in the vertebrae, male mice ([3]; L5, ORX): equally effective
- bone compression strength in the vertebrae, female mice ([3]; L5, compared to mice receiving E2): greater than in mice receiving E2
- BMD in ORX mice compared to DHT replacement ([3]; ORX males, 7.6 mg pellet): at least as effective if not superior
- BMD values in the spine versus the untreated ORX group ([3]; ORX males, 6 weeks): significantly higher
- seminal vesicle weight ([3]; ORX males, pellets E2 0.025 mg or 4-estren-3α,17β-diol 7.6 mg): no effect
- histologic analysis of the uterus ([3]; OVX females): lack of an effect
- wet uterine weight ([3]; OVX females, pellets DHT 10 mg or 4-estren-3α,17β-diol 7.6 mg): no effect
- BMD change in the hindlimb ([3]; OVX mice, compared to OVX+E2 replacement and to estrogen replete sham controls): greater BMD change
- global and spinal BMD in females ([3]; OVX, 7.6 mg pellet versus E2 replacement): as effective, if not superior to estradiol
- osteoclast number ([3]; as compared to the OVX group): suppressed
- rate of bone formation ([3]; as compared to the OVX group): suppressed
- prevalence of osteoblast and osteocyte apoptosis in the lumbar vertebrae ([3]; gonadectomized females or males): prevented the increased prevalence
- cortical width, greater compared to OVX mice treated with E2 [3, 4]: 27.8%
- number of osteoblasts on the trabeculae, greater than in the E2-treated group [3, 4]: 319%
- osteoid perimeter, increase versus E2-treated group [3, 4]: 270%
- trabecular width, greater compared to OVX mice treated with E2 [3, 4]: 33.9%
- serum osteocalcin ([3]; two separate experiments, compared to OVX+E2 and to estrogen replete sham controls): significantly higher
